Source: patent publication US4689345A, “Oxygenated alkyl substituted bicyclo alkanes” (CBD Corporation, priority 1986, dated 1987)
Entries after “also recorded” stand apart in the source; their conditions may differ.

What was measured:
[1] = test system: human fibroblast cells; experiment: Collagen production by fibroblast cells; type: cell-based; settings: treated vs control cells
Source text: (§1) Experiments generally following the methodology of Boote et al., Biochimica et Biophysica Acta, Volume 607, pages 145-160 (1980), have shown that while control human fibroblast cells have copious collagen production, treatment with the compounds of the invention provides human fibroblast cells with suppressed collagen production and with an about 30% increase in elastin production over control cells.
(§2) Wrinkling of the skin involves the decreased formation of elastin and the increased formation of collagen by supporting cells, predominantly the fibroblasts.

[2] = test system: human fibroblast cells; experiment: Elastin production by fibroblast cells; type: cell-based
Source text: as §1, §2

[3] = test system: estrogen receptor (keloid cytosol); experiment: Keloid cytosol steroid binding assay, estrogen; parameters: species or system human

| Compound | collagen production/formation [1] | formation of elastin ([2]; Example 45) | increase in elastin production over control cells ([2]; treated vs control (non-treated) fibroblast cells) [%] | estrogen binding, male patients ([3]; male patients) | Binding of Estrogen ([3]; patient 1) | Binding of Estrogen ([3]; patient 2) |
| --- | --- | --- | --- | --- | --- | --- |
| CCOC(CC)CCCCC1CCC2CC(=O)CC12 (stereo not drawn) [Compound VI, 2-(5-ethoxyhept-1-yl)bicyclo[3.3.0]octan-7-one] | decrease in collagen production; also recorded: decreased | massive observable increase in the formation of elastin | ~30 | – | – | – |
| Estrogen | – | – | – | neither detectable | 9 | 4 |
